Assay results from patent US20260373134A1, “INHIBITORS OF DYRK1A” (Beth Israel Deaconess Medical Center, Inc., priority 2023, published 2026).
pIC50, pKd: −log10 of the molar value. Like-named read-outs stand apart in the source and are kept apart here.

Experiments:
DYRK1A [1] = molecular target: T1, DYRK1A (Homo sapiens, UniProt Q13627); test: Competitive binding assay, KD to DYRK1A
T1 construct: T7 phage (kinase-tagged T7 phage), or a DNA tag for qPCR if produced in HEK-293; made in house; host or cells: E. coli (BL21-derived, T7 phage) for most kinases, HEK-293 for the remaining ones
Description: (§1) Methods: a competitive binding assay was used as the primary screen to measure the binding affinity (KD) to DYRK1A. Selectivity against DYRK1B/2 as well as the related CLK1-4 was determined by comparison of the KD in each of the enzymes. Cellular activity of representative compounds was obtained by measuring the p-Tau levels in HEK293 cells expressing human full-length DYRK1A and Tau.
(§2) Kinase assays. For most assays, kinase-tagged T7 phage strains were prepared in an E. coli host derived from the BL21 strain. E. coli were grown to log-phase and infected with T7 phage and incubated with shaking at 32 °C until lysis. The lysates were centrifuged and filtered to remove cell debris. The remaining kinases were produced in HEK-293 cells and subsequently tagged with DNA for qPCR detection. Streptavidin-coated magnetic beads were treated with biotinylated small molecule ligands for 30 minutes at room temperature to generate affinity resins for kinase assays. The liganded beads were blocked with excess biotin and washed with blocking buffer (SeaBlock (Pierce), 1% BSA, 0.05% Tween 20, 1 mM DTT) to remove unbound ligand and to reduce non-specific binding. […] Test compounds were prepared as 111× stocks in 100% DMSO. Kas were determined using an 11-point 3-fold compound dilution series with three DMSO control points. All compounds for Kd measurements are distributed by acoustic transfer (non-contact dispensing) in 100% DMSO. The compounds were then diluted directly into the assays such that the final concentration of DMSO was 0.9%. All reactions performed in polypropylene 384-well plate. Each was a final volume of 0.02 mL. The assay plates were incubated at room temperature with shaking for 1 hour and the affinity beads were washed with wash buffer (1×PBS, 0.05% Tween 20). The beads were then re-suspended in elution buffer (1×PBS, 0.05% Tween 20, 0.5 μM non-biotinylated affinity ligand) and incubated at room temperature with shaking for 30 minutes. The kinase concentration in the eluates was measured by qPCR.

[2] = molecular target: T2, Tau phosphorylation (human DYRK1A and Tau) in HEK293 cells (Homo sapiens, UniProt Q13627); test: Kinase cellular assay: p-Tau levels in HEK293 cells expressing full-length human DYRK1A and Tau; format: cell-based; conditions: Table 1a
T2 construct: p-Tau ELISA
Description: as §1
Kinase Cellular Assay: HEK293 human embryonic kidney cells were transiently co-transfected with vectors encoding full-length human DYRK1A and Tau. Cells were dispensed into 96-well plates at a number previously determined by cell titration and signal optimization for the DYRK1A assay. Compounds were diluted to 200× final assay concentration in DMSO. Eight 3-fold or 4-fold serial dilutions were prepared for each compound in 100% DMSO. Compounds were then diluted in tissue culture medium to 10× final assay concentration and 5% DMSO. Compounds were added to the cells in 96-well plates (10-fold dilution in medium) for a final concentration of 1× compound and 0.5% DMSO. For positive (high signal) controls, cells were treated with 0.5% DMSO alone. For negative (low signal) controls, cells were treated with 20 μM harmine including 0.5% DMSO final concentration. Cells were incubated with compound at 37 °C for 2 hours. Cells were lysed, and lysates were transferred to an ELISA plate that had been previously coated with antibody to capture the substrate (human Tau). Plates were washed then incubated with an antibody to detect phosphorylation of Tau. Plates were washed then incubated with HRP-linked secondary antibody. Plates were washed, then HRP substrate was added. Absorbance was read at 450 nm. Percent inhibition values were calculated from absorbance readings based on positive and negative control values, and according to the following formula: (% INH=((positive control−sample)/(positive control−negative control))[…]. Z′ values were calculated based on the following formula: 1−[(3×standard deviation of positives+3×standard deviation of negatives)/(average positive−average negative)]. Percent inhibition values were plotted vs. the log of compound concentrations utilizing GraphPad Prism software. IC50s were determined after utilizing sigmoidal dose response curve fitting to generate the curves.

DYRK1A [3] = molecular target: T1, DYRK1A; test: Kinase assay, % inhibition at fixed concentrations (Table 1b); format: binding; conditions: for inhibition at 10 µM: read-out: % inh at 10 μM
Description: as §1, §2

IL-2 = test: T-cell inflammation inhibition assay (anti-CD3 stimulated PBMCs), IL-2; format: cell-based; conditions: Homo sapiens, PBMC, read-out: % inh at 5 μM IL2
Description: (§3) T-cell Inflammation Inhibition Assay Protocol: Day 1, High binding plates were coated with anti-CD3 (clone UCHT-1, 2 μg/mL) and isotype IgG1 using PBS 1× and incubated overnight at 4 °C. Day 2: Cryopreserved PBMCs were drip thawed and diluted to the appropriate density and seeded into U bottom 96-well polypropylene plates (1.2×10^5 cells per well) with 228 μL per well of culture medium (RPMI 1640, 10% heat-inactivated FBS, 1% penicillin/streptomycin, 2 mM L-glutamine). Cells were incubated at 37 °C, 5% CO2 for 1 hour prior to the addition of test compounds. Test compounds were solubilized in DMSO and further diluted to 20× with cell culture medium. Compounds were added to the PBMCs in volumes of 12 μL (1×) in triplicate and incubated for 1 hour at 37 °C, 5% CO2. For reference compound, 12 μL of dexamethasone (100 nM) was added to the control wells according to the plate map and incubated for 1 hour at 37 °C, 5% CO2. After 1 hour incubation, 200 μL of cells (1×10^5) treated with test compounds or controls were transferred to the anti-CD3 coated plates and incubated for 24 hours at 37 °C, 5% CO2, For positive and negative controls, transferred 200 μL (1×10^5) of cells to the coated plate with anti-CD3 or isotype IgG1. Plates were centrifuged at 200×g for 10 minutes. Cell culture supernatants were collected and stored at −80 °C until needed for analysis. Cytokine levels in each sample were determined using Luminex methodology, per the manufacturer's protocol, Luminex assessment of cytokine levels in cell culture supernatants in tissue culture medium, was performed per manufacturer's protocol using the Human Cytokine/Chemokine Magnetic bead panel from Millipore Sigma (catalogue No. HCYTOMAG-60K) with standards range 3.2, 16, 80, 400, 2,000, 10,000 pg/mL. Cytokines Measured: The following cytokines were measured for a complete cytokine response profile. Human panel, T cell (neat): IL-2, IL-17, […].

IL-17 = test: T-cell inflammation inhibition assay (anti-CD3 stimulated PBMCs), IL-17; format: cell-based; conditions: Homo sapiens, PBMC, read-out: % inh at 5 μM IL17
Description: as §3

INFg = test: T-cell inflammation inhibition assay (anti-CD3 stimulated PBMCs), IFN gamma; format: cell-based; conditions: Homo sapiens, PBMC, read-out: % inh at 5 μM INFg
Description: as §3

**Q.** With CC1(COC(=O)Nc2nc3cc(-c4ccncc4)ccc3[nH]2)COC1 [Compound 1, (3-methyloxetan-3-yl)methyl (5-(pyridin-4-yl)-1H-benzo[d]imidazol-2-yl)carbamate] as the compound, how does the pKd (DYRK1A [1]; read-out: KD) read?
**A.** 9.77

**Q.** And the pKd (DYRK1A [1]; read-out: KD (bound))?
**A.** > 9.00

**Q.** And the pIC50 [2]?
**A.** 7.43

**Q.** What about the inhibition at 1 µM (DYRK1A [3]) of the same compound?
**A.** 100%

**Q.** What about the inhibition at 0.1 µM (DYRK1A [3]; read-out: % inh at 0.1 μM) of the same compound?
**A.** 100%

**Q.** And the inhibition at 10 µM (DYRK1A [3])?
**A.** 100%

**Q.** What does the source list for COC(=O)Nc1nc2cc(-c3ccnc(C)c3)ccc2[nH]1 [Compound 2, Methyl (5-(2-methylpyridin-4-yl)-1H-benzo[d]imidazol-2-yl)carbamate]?
**A.** pKd (DYRK1A [1]; read-out: KD): 9.14; pKd (DYRK1A [1]; read-out: KD (bound)): > 9.00; pIC50 [2]: 6.55; inhibition at 5 µM (IL-2): 46.5%; inhibition at 5 µM (IL-2; second value): 42.3%; inhibition at 5 µM (IL-17): 22.8%; inhibition at 5 µM (IL-17; second value): 35.9%; inhibition at 5 µM (INFg): 31.4%; inhibition at 5 µM (INFg; second value): 11.5%

**Q.** How did the pKd (DYRK1A [1]; read-out: KD) turn out when Cc1cc(-c2ccc3[nH]c(NC(=O)OCC4COC4)nc3c2)ccn1 [Compound 5, Oxetan-3-ylmethyl (5-(2-methylpyridin-4-yl)-1H-benzo[d]imidazol-2-yl)carbamate] was run?
**A.** 9.48

**Q.** And the pKd (DYRK1A [1]; read-out: KD (bound))?
**A.** > 9.00

**Q.** What about the pIC50 [2] of the same compound?
**A.** 7.26

**Q.** And the inhibition at 5 µM (IL-2)?
**A.** 78.2%

**Q.** What about the inhibition at 5 µM (IL-2; second value) of the same compound?
**A.** 59.3%

**Q.** And the inhibition at 5 µM (IL-17)?
**A.** 47.8%

**Q.** What about the inhibition at 5 µM (IL-17; second value) of the same compound?
**A.** 51.8%

**Q.** What about the inhibition at 5 µM (INFg) of the same compound?
**A.** 58.8%

**Q.** And the inhibition at 5 µM (INFg; second value)?
**A.** 46%

**Q.** How did the pIC50 [2] turn out when Cc1cc(-c2ccc3[nH]c(NC(=O)NCC4(C)COC4)nc3c2)ccn1 [Compound 6, 1-((3-Methyloxetan-3-yl)methyl)-3-(5-(2-methylpyridin-4-yl)-1H-benzo[d]imidazol-2-yl)urea] was run?
**A.** 6.08

**Q.** What about the inhibition at 5 µM (IL-2) of the same compound?
**A.** 38.9%

**Q.** And the inhibition at 5 µM (IL-2; second value)?
**A.** 35.8%

**Q.** What about the inhibition at 5 µM (IL-17) of the same compound?
**A.** 9.3%

**Q.** What about the inhibition at 5 µM (IL-17; second value) of the same compound?
**A.** 7.3%

**Q.** What about the inhibition at 5 µM (INFg) of the same compound?
**A.** 30%

**Q.** What does the source list for O=C(Nc1nc2cc(-c3cccnc3)ccc2[nH]1)OCC1COC1 [Compound 7, Oxetan-3-ylmethyl (5-(pyridin-3-yl)-1H-benzo[d]imidazol-2-yl)carbamate]?
**A.** inhibition at 5 µM (IL-2): 36.9%; inhibition at 5 µM (IL-2; second value): 43.4%; inhibition at 5 µM (INFg): 24.4%

**Q.** O=C(Nc1nc2cc(-c3ccncc3)ccc2[nH]1)OCC1COC1 [Compound 10, Oxetan-3-ylmethyl (5-(pyridin-4-yl)-1H-benzo[d]imidazol-2-yl)carbamate] was tested. Which pIC50 [2] did it give?
**A.** 7.59

**Q.** What about the inhibition at 5 µM (IL-2) of the same compound?
**A.** 76.1%

**Q.** And the inhibition at 5 µM (IL-2; second value)?
**A.** 59.8%

**Q.** And the inhibition at 5 µM (IL-17)?
**A.** 35%

**Q.** What about the inhibition at 5 µM (IL-17; second value) of the same compound?
**A.** 30.4%

**Q.** And the inhibition at 5 µM (INFg)?
**A.** 57.5%

**Q.** And the inhibition at 5 µM (INFg; second value)?
**A.** 39.9%

**Q.** With CC1(CNC(=O)Nc2nc3cc(-c4ccncc4)ccc3[nH]2)COC1 [Compound 11, 1-((3-Methyloxetan-3-yl)methyl)-3-(5-(pyridin-4-yl)-1H-benzo[d]imidazol-2-yl)urea] as the compound, how does the pKd (DYRK1A [1]; read-out: KD) read?
**A.** 9.48

**Q.** What about the pKd (DYRK1A [1]; read-out: KD (bound)) of the same compound?
**A.** > 9.00

**Q.** What does the source list for Cc1cc(-c2ccc3[nH]c(NC(=O)OCC4(C)COC4)nc3c2)ccn1 [Compound 12, (3-methyloxetan-3-yl)methyl (5-(2-methylpyridin-4-yl)-1H-benzo[d]imidazol-2-yl)carbamate]?
**A.** pKd (DYRK1A [1]; read-out: KD): 9.85; pKd (DYRK1A [1]; read-out: KD (bound)): > 9.00

**Q.** For COC(=O)Nc1nc2cc(OC)ccc2[nH]1 [Compound 17, Methyl (5-methoxy-1H-benzo[d]imidazol-2-yl)carbamate], which inhibition at 10 µM (DYRK1A [3]) is on record?
**A.** 69%

**Q.** For COc1ccc2[nH]c(N)nc2c1 [Compound 18, 5-Methoxy-1H-benzo[d]imidazol-2-amine], which inhibition at 10 µM (DYRK1A [3]) is on record?
**A.** 11%

**Q.** With COc1ccc2[nH]c(NC(=O)OCCN(C)C)nc2c1 [Compound 19, 2-(Dimethylamino)ethyl (5-methoxy-1H-benzo[d]imidazol-2-yl)carbamate] as the compound, how does the inhibition at 10 µM (DYRK1A [3]) read?
**A.** 51%

**Q.** With COc1ccc2[nH]c(NC(=O)OCC3(C)COC3)nc2c1 [Compound 20, (3-Methyloxetan-3-yl)methyl (5-methoxy-1H-benzo[d]imidazol-2-yl)carbamate] as the compound, how does the inhibition at 1 µM (DYRK1A [3]) read?
**A.** 63%

**Q.** And the inhibition at 10 µM (DYRK1A [3])?
**A.** 96.4%

**Q.** For COc1ccc2[nH]c(NC(=O)OCc3cccc(F)c3)nc2c1 [Compound 21, 3-Fluorobenzyl (5-methoxy-1H-benzo[d]imidazol-2-yl)carbamate], which inhibition at 10 µM (DYRK1A [3]) is on record?
**A.** 69%
